Measured values: paper PMC5706701, “Development of a homogenous high-throughput assay for inositol hexakisphosphate kinase 1 activity” (PLoS ONE, 2017)
Counter-ions that a name gives are not always drawn. Like-named read-outs stand apart in the source and are kept apart here.

Target: T1, Human IP6K1 (Homo sapiens, UniProt Q92551)
T1 construct: GST (N, cleaved yes); made in house; host or cells: C43 E. coli, pGEX-6P-2
Test: IP6K1 high-throughput screen of the Sigma LOPAC (ADP-Glo Max, single point);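 also: final compound concentration 10µM in 5% DMSO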
Assay type: biochemical

[1] = Sigma LOPAC single-point screen, ADP-Glo Max raw signal per well
[2] = Sigma LOPAC single-point screen, Z-score from plate average and StDev
[3] = LOPAC single-point screen, ADP-Glo Max raw signal per well
[4] = LOPAC single-point screen, Z-score from raw signal with plate average and StDev
[5] = LOPAC single-point screen, ADP-Glo Max luminescence raw signal per well
[6] = LOPAC single-point screen, Z-score relative to plate average and StDev
[7] = LOPAC single-point screen, Z-score against plate average and StDev
[8] = LOPAC single-point screen, Z-score from plate average and StDev

T1 sequence (Q92551 whole entry): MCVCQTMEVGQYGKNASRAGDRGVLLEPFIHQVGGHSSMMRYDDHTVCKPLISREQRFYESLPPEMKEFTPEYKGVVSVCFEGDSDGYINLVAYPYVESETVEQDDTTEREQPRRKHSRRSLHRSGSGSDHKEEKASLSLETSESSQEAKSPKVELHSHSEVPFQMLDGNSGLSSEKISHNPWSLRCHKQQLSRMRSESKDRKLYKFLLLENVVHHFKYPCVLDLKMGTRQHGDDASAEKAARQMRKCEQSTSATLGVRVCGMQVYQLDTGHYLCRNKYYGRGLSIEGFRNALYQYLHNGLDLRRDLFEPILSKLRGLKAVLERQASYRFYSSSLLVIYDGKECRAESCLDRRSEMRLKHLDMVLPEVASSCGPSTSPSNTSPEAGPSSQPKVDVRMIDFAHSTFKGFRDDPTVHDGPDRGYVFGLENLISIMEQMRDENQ

| SMILES | Raw Signal [3] | Z-score [4] | Raw Signal [5] | other results |
| --- | --- | --- | --- | --- |
| CC(C)Cn1c(=O)n(C)c(=O)c2[nH]cnc21 [3-Isobutyl-1-methylxanthine] | – | – | – | Raw Signal [1]: 62159; Z-score [2]: 1.305 |
| CN(C)CCCCSC(=N)N.Cl.Cl [SKF 91488 dihydrochloride] | 55411 | -0.1191 | – | – |
| C=CCN1CC[C@]23c4c5ccc(O)c4O[C@@H]2/C(=N/N=C2\CC[C@@]4(O)C6Cc7ccc(O)c8c7[C@@]4(CCN6CC=C)[C@@H]2O8)CC[C@@]3(O)C1C5.Cl.Cl [Naloxonazine dihydrochloride] | – | – | 51290 | Z-score [6]: -0.5215 |
| Cc1ccc(O)c(N=Nc2ccccc2)n1 [SIB 1757] | – | – | 46352 | Z-score [6]: -1.879 |
| COc1ccccc1N1CCN(CCN(C(=O)c2ccc(I)cc2)c2ccccn2)CC1.Cl [p-MPPI hydrochloride] | – | – | – | Raw Signal [1]: 60360; Z-score [2]: 1.003 |
| CC(C)C(=O)c1c(C(C)C)nn2ccccc12 [Ibudilast] | 53701 | -0.2977 | – | – |
| NC(Cc1cccc(-c2ccccc2CP(=O)(O)O)c1)C(=O)O (stereo not drawn) | 56365 | – | – | Z-score [7]: 0.06629 |
| C1CCc2nnnn2CC1 [Pentylenetetrazole] | – | – | – | Raw Signal [1]: 57450; Z-score [2]: 0.5136 |
| CC(N)(Cc1ccc(O)cc1)C(=O)O (racemic) [DL-alpha-Methyl-p-tyrosine] | – | – | 72995 | Z-score [8]: 2.656 |
| CNCCC(Oc1ccccc1OC)c1ccccc1 (stereo not drawn) [Nisoxetine hydrochloride] | – | – | – | Raw Signal: 55675; Z-score: 0.2153 |
| O=C(O)CP(=O)(O)O [Phosphonoacetic acid] | 54653 | -0.2663 | – | – |
| CC(C(=O)O)c1ccc(CC2CCCC2=O)cc1 (stereo not drawn) [loxoprofen] | – | – | 49153 | Z-score [6]: -0.8805 |
| CC1CNCCN1S(=O)(=O)c1cccc2cnccc12.Cl.Cl (stereo not drawn) [H-7 dihydrochloride] | – | – | 51716 | Z-score [6]: -0.7009 |
| NS(=O)(=O)c1cc2c(cc1Cl)N=CNS2(=O)=O [Chlorothiazide] | – | – | 49210 | Z-score [6]: -1.533 |
| CC[C@]1(O)C[C@@H]2CN(CCc3c([nH]c4ccccc34)[C@@](C(=O)OC)(c3cc4c(cc3OC)N(C)[C@H]3[C@@](O)(C(=O)OC)[C@H](OC(C)=O)[C@]5(CC)C=CCN6CC[C@]43[C@@H]65)C2)C1.O=S(=O)(O)O [Vinblastine sulfate salt] | 55305 | -0.1396 | – | – |
| C=C/C(C)=C/[C@@]1(C)SC(=O)C(C)=C1O [Thiolactomycin] | 51778 | -0.4395 | – | – |

| SMILES | Raw Signal [3] | Z-score [4] | Raw Signal [5] | other results |
| --- | --- | --- | --- | --- |
| O=C(O)c1cc[c]([Hg][Cl])cc1 [4-Chloromercuribenzoic acid] | 56908 | -0.177 | – | – |
| O=C(O)c1nn(Cc2ccc(Cl)cc2Cl)c2ccccc12 [Lonidamine] | 56276 | – | – | Z-score [7]: 0.3163 |
| CC(C)NCC(O)c1ccc(O)c(O)c1.Cl (racemic) [(±)-Isoproterenol hydrochloride] | – | – | – | Raw Signal [1]: 57305; Z-score [2]: 0.4892 |
| NC(=O)C1=CN([C@@H]2O[C@H](COP(=O)([O-])OP(=O)([O-])OC[C@H]3O[C@@H](n4cnc5c(N)ncnc54)[C@H](OP(=O)([O-])[O-])[C@@H]3O)[C@@H](O)[C@H]2O)C=CC1.[Na+].[Na+].[Na+].[Na+] [NADPH tetrasodium] | – | – | – | Raw Signal [1]: 57869; Z-score [2]: 0.584 |
| O=C(c1ccc(F)cc1)C1CCN(CCn2c(=O)[nH]c3ccccc3c2=O)CC1 [Ketanserin tartrate] | – | – | – | Raw Signal [1]: 61310; Z-score [2]: 1.027 |
| CCCCC1C(=O)N(c2ccccc2)N(c2ccccc2)C1=O [Phenylbutazone] | – | -0.2764 | – | – |
| NC(=O)c1ccc(OCC(O)CN2CC=C(c3ccc(F)cc3)CC2)cc1 (stereo not drawn) [Ro 8-4304] | – | – | 63292 | Z-score [8]: 1.412 |
| Nc1ccn([C@H]2CC[C@@H](CO)O2)c(=O)n1 [2 ,3 -dideoxycytidine] | – | – | 50390 | Z-score [6]: -0.9702 |
| COC(=O)N1CCN(C(=O)Cc2ccc(Cl)c(Cl)c2)C(CN2CCCC2)C1.O=C(O)/C=C/C(=O)O (stereo not drawn) [GR-89696 fumarate] | 54440 | -0.1477 | – | – |
| Cl.NCCCCC(=O)O [5-Aminovaleric acid hydrochloride] | 58378 | – | – | Z-score [7]: 0.08188 |
| O=C(O)c1ccccc1Nc1cccc(OCc2ccc3ccccc3n2)c1 [SR 2640] | – | – | 52929 | Z-score [6]: -0.6013 |
| Nc1nc(Nc2ccccc2)nc2c1ncn2[C@@H]1O[C@H](CO)[C@@H](O)[C@H]1O [2-Phenylaminoadenosine] | 55292 | -0.1422 | – | – |
| CNc1ncnc2c1ncn2[C@@H]1O[C@H](CO)[C@@H](O)[C@H]1O [N6-Methyladenosine] | – | – | 48943 | Z-score [6]: -0.9158 |
| O=C(O)Cc1ccccc1Nc1c(Cl)cccc1Cl [Diclofenac sodium] | 53274 | -0.3845 | – | – |
| CCCCc1ccc(C(=O)O)nc1 [Fusaric acid] | – | – | 50850 | Z-score [6]: -0.8767 |
| O=C(O)[C@@H]1C[C@H](C(=O)O)N1 [cis-Azetidine-2,4-dicarboxylic acid] | – | – | 69033 | Z-score [8]: 1.959 |
